Test results published in EP0289450A1, “15-Alkyl-19-thio-androst-4-en-3,17 diones, process for their preparation and pharmaceutical compositions containing them” (SCHERING AKTIENGESELLSCHAFT, priority 1987, dated 1988).

Molecular target: T1, Aromatase (Rattus norvegicus, UniProt P22443)
T1 construct: Infantile weibliche Ratten reagieren auf PMSG-Behandlung mit einheitlich erhöhter Steroidsynthese; from tissue; host or cells: living infantile female rats (whole animal); estradiol measured in serum by radioimmunoassay
T1 sequence (P22443 1-508): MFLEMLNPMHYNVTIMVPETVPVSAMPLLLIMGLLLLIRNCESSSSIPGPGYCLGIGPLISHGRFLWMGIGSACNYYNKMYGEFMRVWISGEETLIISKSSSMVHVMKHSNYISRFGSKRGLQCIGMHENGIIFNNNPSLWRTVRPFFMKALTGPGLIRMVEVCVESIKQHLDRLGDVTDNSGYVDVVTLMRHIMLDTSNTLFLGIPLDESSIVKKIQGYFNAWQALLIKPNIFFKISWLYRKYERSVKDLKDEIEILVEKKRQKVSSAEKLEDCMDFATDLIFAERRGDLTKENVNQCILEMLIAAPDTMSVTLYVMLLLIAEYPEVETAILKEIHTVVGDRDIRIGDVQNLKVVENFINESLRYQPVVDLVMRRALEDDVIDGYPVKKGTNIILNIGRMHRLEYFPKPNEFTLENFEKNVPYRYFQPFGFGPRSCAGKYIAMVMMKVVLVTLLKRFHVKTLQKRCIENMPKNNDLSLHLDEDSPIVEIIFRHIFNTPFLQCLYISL
Test: PMSG (Pregnant Mare's Serum Gonadotropin) test: effect on PMSG-stimulated serum estradiol after oral application
Type: in vivo, Ratte
Settings: 10 mg/Tier 2 x p.o.; for Östradiol-Konzentration in: peripheral serum of PMSG-pretreated infantile female rats, 24 h after last PMSG application, mean ± standard deviation, n = 10; for relative Wirkstärke: relative potency versus compound A (= 1,0), by regression and covariance analysis, rat
Description: So konnte zum Beispiel im sogenannten PMSG (Pregnant Mare's Serum Gonadotropin)-Test [J. Steroid. Biochem. 7, (1976) 787] gezeigt werden, daß im Vergleich zu dem bekannten Aromatasehemmer 19-Methylthio-4-androsten-3,17-dion (A) die erfindungsgemäßen Verbindungen, wie zum Beispiel 15α-Ethyl-19-methylthio-4-androsten-3,17-dion (B), bei oraler Applikation eine stärkere Wirkung besitzen.
Infantile weibliche Ratten reagieren auf PMSG-Behandlung mit einheitlich erhöhter Steroidsynthese. Die Aromataseaktivität kann durch die Beeinflussung der PMSG-stimulierten Östrogenbildung gemessen werden.
Im PMSG-Test werden 21 Tage alte weibliche Ratten alle 2 Tage insgesamt 7 mal mit je 100 I.U. PMSG subkutan vorbehandelt. 1 Stunde vor und 8 Stunden nach der letzten PMSG-Applikation (d₁₂) erhalten die Tiere die Testsubstanz durch orale Applikation.
Die Kontrolltiere erhalten nur das Vehikel. 24 Stunden nach der letzten PMSG-Applikation werden die Tiere getötet. Im Serum wird Östradiol radioimmunologisch geprüft. Für jede Gruppe von 10 Tieren wird der Mittelwert der Östradiolkonzentration in nMol/l mit der Standardabweichung errechnet. Die Signifikanzen der Unterschiede zur Kontrollgruppe werden durch die Varianzanalyse geprüft.
Zur Ermittlung der relativen Wirkungsstärke der zu testenden Substanz im Vergleich zu der Vergleichssubstanz wird die Regressions- und Kovarianzanalyse durchgeführt. Ferner wird die prozentuale Hemmung gegen die PMSG-Kontrolle berechnet.

Row | SMILES | Östradiol-Konzentration in | relative Wirkstärke
1 | CSC[C@]12CCC(=O)C=C1CC[C@@H]1[C@@H]2CC[C@]2(C)C(=O)CC[C@@H]12 [A, 19-Methylthio-4-androsten-3,17-dion] | 5,50 ± 0,43 nMol/l | 1,0
2 | CC[C@H]1CC(=O)[C@@]2(C)CC[C@H]3[C@@H](CCC4=CC(=O)CC[C@@]43CSC)[C@H]12 [B, 15α-Ethyl-19-methylthio-4-androsten-3,17-dion] | 4,05 ± 0,36 nMol/l | 3,2
